What all share (experiment): NCI anticancer screen, dose series, 48 h
Test [1] has as its system SNB-19 CNS.
In test [2] the test system is HOP-62 NSCLC.
In test [3] the test system is M14 melanoma.
In test [4] the test system is UACC-62 melanoma.
Test [5] deals with A498 renal.
The test system of test [6] is SF-539 CNS.
The test system of test [7] is SNB-75 CNS.
For test [8], the system named is MALME-3M melanoma.
The test system of test [9] is MOLT-4 leukemia.

Molecules are shown by their SMILES. Where “and” joins values, the source holds several entries; their conditions need not be identical. Identical values can stand only once.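 All cell lines were grown in 96-well plates and treated with compound for 48 hours. GI50: concentration for 50% inhibition of growth. TGI is the concentration that stops growth completely.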 Some results are limits rather than exact numbers.

Take `CC(=O)OC1=C2CC[C@@H]3C(CC[C@@]4(C)C3CC[C@@H]4OC(C)=O)[C@@]2(C)CC(C#N)C1=O` (stereo not given in full): the TGI in test [1] is > 100 µM; in test [2], > 100 µM; in [3] it was > 100 µM; in test [4] it was 38.9 µM; in test [5] it was 9.59 µM; in test [6], > 100 µM. Further, the TGI in test [7] is 72.9 µM; in [8], > 100 µM; in [9] it was 51.3 µM.

For the molecule `Cc1[nH]c2ccccc2c1C1=NO/C(=N\O)C(c2c(C)[nH]c3ccccc23)C1` (stereo not given), the TGI in test [1] is > 100 µM; in [2], 64.6 µM; in test [3], > 89.6 µM; in test [4], 62.7 µM; in [5] it was > 100 µM; in [6], > 80.3 µM. The TGI in test [7] is > 100 µM; in [8], > 100 µM; in [9], 69.6 µM.

As to `CN=C1CN=C(OP(=O)(N2CCOCC2)N2CCOCC2)c2cc(Cl)ccc2N1`, the TGI in test [1], in [3], in test [4], in test [5], in [6] and in [7] was > 100 µM throughout. Also, the TGI in [8] and in test [9] was > 100 µM in each case.

On to `COc1cc(/C=C2\NC(=O)C3Cc4c(OC)c(C)c(OC)c(OC)c4C2N3C)c(OC)c(C)c1OC` (stereo not given), for which the TGI in [1], in [2], in test [3], in [4], in test [5] and in test [6] was > 100 µM in each case. The TGI in test [7], in test [8] and in [9] was > 100 µM throughout.

For `Cc1c[nH]c(=O)n(Cc2nnc(CCC(=O)c3nc4ccccc4[nH]3)o2)c1=O`, the GI50 in test [1] is 1.27 µM; in test [2] it was 0.967 µM; in [3], 0.492 µM; in test [4], 0.721 µM; in test [5], 0.296 µM; in test [6] it was 0.799 µM. The GI50 is 0.0558 µM in test [7], 1.14 µM in test [8] and 1.69 µM in [9]. The TGI in [1] is > 100 µM; in test [2] it was > 100 µM; in [3], 3.12 µM; in test [4], > 88.1 µM; in [5] it was 3.89 µM; in [6] it was 29.9 µM. For the same molecule, the TGI in test [7] was 0.806 µM; in test [8], > 100 µM; in [9], > 100 µM.

On to `CCOC(=O)CNC(=O)OCc1ccccc1`, for which the TGI in test [1], in test [2], in test [3], in test [4], in [5] and in [6] was > 100 µM throughout. The TGI in [7], in [8] and in test [9] was > 100 µM in each case.

Take `[Co].[O-]c1cccnc1C=Nc1ccccc1.[OH3+]`: the GI50 in [1] is > 100 µM; in test [3] it was > 100 µM; in test [4], 86.1 µM; in test [5], > 100 µM; in test [6] it was > 100 µM; in test [7] it was 49.7 µM. In addition, the GI50 was > 100 µM in test [8] and 78.3 µM in test [9]. Besides, the TGI in test [1], in test [3], in test [4], in test [5], in test [6] and in [7] was > 100 µM in each case. For the same molecule, the TGI in [8] and in [9] was > 100 µM in each case.

As to `Cc1ccc(/C=N/NS(=O)(=O)c2ccccc2)cc1C`, the TGI in test [2], in test [3], in [4], in test [5], in test [6] and in test [7] was > 100 µM throughout. Also, the TGI in [8] and in test [9] was > 100 µM each time.

For the molecule `CC(=O)NCc1c(C(N)=O)ncn1Cc1ccccc1`, the TGI in test [1], in [2], in test [3], in [4], in [5] and in [6] was > 100 µM each time. Further, the TGI in test [7] and in test [9] was > 100 µM in each case.

On to `O=C(O)CCSC(=O)Nc1cccc2ccccc12`, for which the TGI in test [1], in test [2], in test [3], in test [4], in test [5] and in test [6] was > 100 µM each time. The TGI in [7], in test [8] and in test [9] was > 100 µM throughout.

With `COc1ccc(-c2oc3c(OC)c(OC)c(OC)c(O)c3c(=O)c2OC)cc1O`, the GI50 in [2] was 0.0478 µM; in [3] it was < 0.01 µM; in test [4], < 0.01 µM; in test [7], < 0.01 µM. Further, the TGI in test [2] was 0.877 µM and 4.75 µM; in test [4] it was 19.8 µM; in [5] it was 5.93 µM; in test [6], 0.101 µM; in test [7], < 0.01 µM; in [9], 12.7 µM.

`O=[N+]([O-])c1cc(I)cc(/C=N/NS(=O)(=O)c2ccc(Cl)cc2)c1O`: the TGI in test [1] is > 100 µM; in test [2], 53.6 µM; in test [3] it was 58.3 µM; in test [4], 57.6 µM; in [5] it was 58.8 µM; in test [6] it was 51.5 µM. The TGI in [7] is 61.2 µM; in test [8], 48.9 µM; in [9] it was 51.5 µM.

For the molecule `CO/C=C(\Br)c1ccc2c(c1)OCO2`, the TGI in test [1], in test [2], in test [3], in test [4], in [5] and in test [6] was > 100 µM each time. Moreover, the TGI in [7], in [8] and in [9] was > 100 µM throughout.

As for `O=C(C=Nc1ccccc1S)c1ccco1`, the TGI was 16.3 µM in [1]; 15.2 µM in test [2]; 28.7 µM in [3]; 29.5 µM in [4]; > 100 µM in test [5]; 27.3 µM in [6]. The TGI in test [7] came out at 31.9 µM; in test [8], 35.1 µM; in test [9], 27.5 µM. Besides, the GI50 in [3] was 15 µM; in test [5], > 100 µM; in [7], 17.7 µM.

For `CC(=O)[CH-]C(C)=O.CC(=O)[CH-]C(C)=O.[Cl-].[O]=[V]`, the GI50 in test [1] is 39.9 µM; in test [3], 11.4 µM; in test [4], 20 µM; in test [6], 17.5 µM; in test [7], 8.51 µM; in test [8] it was 9.76 µM. The TGI was > 100 µM in test [1]; 31 µM in [3]; 59.1 µM in [4]; 37.5 µM in test [6]; 25.2 µM in test [7]; 27.9 µM in [8].

In the case of `CN(C)CCN(C)C(=O)c1cccc2cccc(C(=O)O)c12`, the TGI in [1], in [2], in test [3], in test [4], in [5] and in test [6] was > 100 µM throughout. The TGI in test [7], in test [8] and in [9] was > 100 µM each time.

Consider `O=S1(=O)c2cc(S(=O)(=O)n3ccnc3)ccc2NC2=NCCCN21`, for which the TGI is > 100 µM in [1]; 63.6 µM in test [2]; > 100 µM in [3]; > 100 µM in test [4]; 62.3 µM in [5]; 40.1 µM in [6]. The TGI in [7] is 88.1 µM; in [8], > 100 µM; in test [9], > 100 µM.

On to `N#CC(C(=O)CCC(=O)Nc1cccc(C(F)(F)F)c1)c1ccccc1` (stereo not given), for which the TGI in test [1], in test [2], in [3], in [4], in [5] and in [6] was > 100 µM throughout. Further, the TGI in test [7], in test [8] and in test [9] was > 100 µM throughout.

`CC(C)CCCCCCCCCCCCC(=O)NCC(=O)NC1C(C)OC(Nc2ncnc3nc[nH]c23)C(O)C1O` (stereo not given): the GI50 is 0.00845 µM in [1]; 0.00252 µM in [3]; 0.000425 µM and 0.000705 µM in test [4]; 0.011 µM in test [6]; 0.0522 µM in [7]; 0.00254 µM in test [8]. The GI50 in [9] is 0.00213 µM. For the same molecule, the TGI in test [2] is 0.00859 µM; in [4], 0.00892 µM and 0.0226 µM; in [7] it was 0.00316 µM; in test [9] it was 0.00788 µM and 0.0323 µM.

With `O=C(CC1(O)C(=O)Nc2ccccc21)c1ccc(Cl)cc1Cl` (stereo not given), the TGI in [1], in test [3], in test [4], in [5], in test [6] and in test [7] was > 100 µM each time. The TGI in [8] and in test [9] was > 100 µM each time.

With `Brc1ccc(C=NC23CC4CC(CC(C4)C2)C3)cc1`, the TGI in test [1], in test [2], in [3], in test [4], in test [5] and in [6] was > 100 µM in each case. The TGI in test [7], in [8] and in [9] was > 100 µM in each case.

For the molecule `COc1ccccc1NC(=O)C1=C(C)NC(C)=C(C(=O)Nc2ccccc2OC)C1c1ccccc1Cl`, the TGI in [1], in test [2], in test [3], in test [4], in test [5] and in test [6] was > 100 µM in each case. The TGI in test [7], in test [8] and in [9] was > 100 µM throughout.

In the case of `COc1ccc(-c2cc(=O)c3cc(C)c(C)c(C(=O)O)c3o2)cc1`, the TGI is > 100 µM in [1]; > 100 µM in test [2]; 30.7 µM in test [4]; > 100 µM in [5]; > 100 µM in [6]; > 100 µM in [7]. Besides, the TGI in [9] was > 100 µM.

Turning to `C[C@]12CCc3nonc3C1CC[C@@H]1C2CC[C@@]2(C)C1CC[C@@H]2O` (stereo not given in full), the TGI in [1], in [2], in test [3], in test [4], in test [5] and in [6] was > 100 µM in each case. The TGI in [7], in test [8] and in test [9] was > 100 µM throughout.

For `COc1ccc(C[C@]23CCC(=O)N2CCc2cc(OC)c(O)cc23)cc1O`, the TGI in test [1], in [2], in test [3], in test [4], in [5] and in test [6] was > 100 µM in each case. In addition, the TGI in [7], in [8] and in test [9] was > 100 µM in each case.

On to `C[N+](C)(C)C1CC([N+](C)(C)C)C2c3ccccc3C21` (stereo not given), for which the TGI in [1], in test [2], in test [3], in [4], in [5] and in test [6] was > 100 µM throughout. The TGI in test [7] and in test [8] was > 100 µM throughout.

For `C1C[OH+]CCNCC[OH+]CC[OH+]CCN1.N.[Cl-].[Pt+4]`, the GI50 was > 100 µM in test [1]; > 100 µM in [2]; 54.2 µM in [3]; 31.6 µM in test [4]; 64.6 µM in test [5]; > 100 µM in test [6]. The results for the GI50 in test [7], in test [8] and in test [9] were 24.2 µM, > 100 µM and 59.8 µM, respectively. Further, the TGI in test [1], in [2], in test [3], in test [4], in [5] and in test [6] was > 100 µM throughout. The TGI in test [7], in test [8] and in test [9] was > 100 µM each time.

The values above are taken from PubChem BioAssay (NCI).
